Test results as given in patent US10995068B2, “Synthetic sphingolipid-like molecules, drugs, methods of their synthesis and methods of treatment” (The Regents of the University of California, priority 2015, dated 2021).

Legend:
[1] = tested on: SW620 cells; assay: Phosphorylation in intact cells by UPLC-MS/MS, SW620; assay type: in vitro ADME, human; details: 10 μM, 16 h incubation, percent of total compound recovered by UPLC-MS/MS
Procedure: Mass spectrometric quantification: One million PC3 or 5 million SW620 cells in one well of a 6 well plate are treated with 10 μM FTY720 or 5 for 16 h. Media (100 μl) is removed from the well and combined with 100 μl of acetonitrile. Cells are collected by scraping, pelleted, and re-suspended in 100 μl of HPLC-grade water followed by the addition of 100 μl acetonitrile. Seventy-five nanograms of the compounds not being quantified (FTY720 and FTY720-P for analysis of the phosphorylation of 5, or 5 and 5-P for the analysis of FTY720/FYT720-P) is added to serve as an internal standard to allow correction for loss of compound during sample preparation. […] Insoluble material is again removed by centrifugation and the supernatant analyzed for compound content. Twenty microliters of this de-proteinated sample is analyzed by UPLC-MS/MS (Waters Micromass Quattro Premier XE) equipped with a C18 reversed phase column (Waters) using an acetonitrile (+0.2% acetic acid) gradient elution. […] The cone voltages are 30V for FTY720 and 5, and 20V for FTY720-P and 5-P. A standard curve is generated using pure compounds to allow for quantification; standard curves were linear from 50-1000 ng/ml with an R^2 of 0.98 or greater. […]

[2] = tested on: cellular oxygen consumption; assay: Cellular oxygen consumption; assay type: cell-based; details: XF24 Extracellular Flux Analyzer
Description: Cells treated with oligomycin or rotenone/antimycin A, as expected, compensated for the loss of oxidative phosphorylation by increasing glycolysis, reducing the bound NADH fraction (FIG. 51F). Conversely, the glycolysis inhibitor 2-DG and starvation increased oxidative phosphorylation and the bound to free NADH ratio. SH-BC-893 mimicked the effect of amino acid and glucose starvation, increasing the bound NADH fraction and cellular oxygen consumption (FIGS. 51F and 51G). Cells responded similarly to the anti-inflammatory drug FTY720. Thus, the metabolic changes triggered by SH-BC-893 parallel those seen in cells with restricted access to key metabolic substrates.
Cell analysis: Viability and 4F2hc expression are determined by vital dye exclusion and flow cytometry. Oxygen consumption is measured with an XF24 Extracellular Flux Analyzer (Seahorse Bioscience); values are normalized to total protein. Confocal microscopy is performed on either a Zeiss LSM780 or a Nikon Eclipse Ti; vacuolation was monitored using a Nikon TE2000-S equipped with DIC filters. Anchorage-independent growth of SW620 cells is measured in DMEM-10 containing 0.35% agarose with a 0.5% agarose bottom layer. […] Plates were incubated at 37° C. in a humidified atmosphere containing 5% CO2 and colonies were counted after 12 days.

[3] = tested on: PI(3,5)P2 levels in HeLa cells; assay: Measurement of PI(3,5)P2 by HPLC; assay type: cell-based
Procedure: In certain embodiments of the invention, sphingolipid-like molecules mis-localize PIKfyve preventing its association with TRMPL1 and inducing vacuolation, instead of inhibiting PIKfyve kinase activity. While PIKfyve localized to the limiting membrane of YM201636-induced vacuoles as expected, PIKfyve was present in clumps between vacuoles in FTY720-treated cells (FIGS. 57C and 56F).
Measurement of PI(3,5)P2 by HPLC. HeLa cells were rinsed twice with PBS and incubated in for 48 h in inositol labeling medium (inositol-free DMEM containing 5 μg/ml transferrin, 5 μg/ml insulin, 10% dialyzed FCS, 20 mM HEPES, 2 mM L-glutamine), and 10 μCi/ml myo-[2-^3H]inositol. Cells were lysed with 4.5% perchloric acid, scraped, and centrifuged at 14,000×g for 10 min at 4° C. Cell pellets were rinsed with 100 mM EDTA, centrifuged again, and re-suspended in 50 μl of water. To deacylate lipids, 1 ml methanol/40% methylamine/butanol (45.7% methanol, 10.7% methylamine, 11.4% butanol) were added and then the mixture was transferred to a glass vial and incubated at 55° C. for 1 h. After cooling to room temperature, samples were vacuum dried and re-suspended in 0.5 ml water. […] The aqueous phase was vacuum dried and re-suspended in 75 μl water and 50 μl of each sample was analyzed by HPLC. PI(3,5)P2 levels were expressed as a percentage of total phosphatidylinositol.

Row | SMILES | efficiency of phosphorylation in intact cells [1] | cellular oxygen consumption [2] | PI(3,5)P2 levels [3]
1 | CCCCCCCCc1ccc([C@H]2CCN[C@@H]2CO)cc1.Cl [Compound 5, (2S,3R)-2-(hydroxymethyl)-3-(4-octylphenyl)Pyrrolidinium chloride] | phosphorylated slightly more efficiently than FTY720 | increasing | –
2 | CCCCCCCCc1ccc(CCC(N)(CO)CO)cc1.Cl [FTY720, 2-Amino-2-[2-(4-octylphenyl)ethyl]propane 1,3-diol hydrochloride, reference compound] | – | – | did not inhibit PIKfyve kinase activity or reduce PI(3,5)P2 levels
